Measurements as given in ChEMBL document CHEMBL3885861, “Open TG-GATES”.

Organism: Rattus norvegicus
Assay: Open TG-GATES - Regimen: Daily Repeat
Format: toxicity, organism-based, Sprague-Dawley
Parameters: regimen Daily Repeat, gender Male, age 6 weeks
Conditions: in vivo, sc, route subcutaneous injection; for APTT / Bas / Eos / Fbg / Hb / Ht / Lym / MCH / MCHC / MCV / Mono / Neu / PT / Plat / RBC / Ret / WBC: tissue Blood; for KIDNEY_L / KIDNEY_R / KIDNEY_TOTAL: tissue Kidney; for LIVER: tissue Liver; for A/G / ALP / ALT / AST / BUN / CRE / Ca / Cl / DBIL / GLC / IP / K / LDH / Na / PL / RALB / TBIL / TC / TG / TP / gamma-GTP: tissue Plasma
[1] = 0 mg/kg, 72 h, dose 0 ug/Kg, dose level Control, time 3 day
[2] = 0 mg/kg, […], dose 0 ug/Kg, dose level Control, time 7 day
[3] = 0 mg/kg, […], dose 0 ug/Kg, dose level Control, time 14 day
[4] = 0 mg/kg, […], dose 0 ug/Kg, dose level Control, time 28 day
[5] = 0.002 mg/kg, 72 h, dose 2 ug/Kg, dose level Low, time 3 day
[6] = 0.002 mg/kg, […], dose 2 ug/Kg, dose level Low, time 7 day
[7] = 0.002 mg/kg, […], dose 2 ug/Kg, dose level Low, time 14 day
[8] = 0.002 mg/kg, […], dose 2 ug/Kg, dose level Low, time 28 day

## CC(=O)O.N=C(N)NCCC[C@@H](NC(=O)[C@@H]1CCCN1C(=O)[C@@H]1CSSCCC(=O)N[C@@H](Cc2ccc(O)cc2)C(=O)N[C@@H](Cc2ccccc2)C(=O)N[C@@H](CCC(N)=O)C(=O)N[C@@H](CC(N)=O)C(=O)N1)C(=O)NCC(N)=O [DESMOPRESSIN ACETATE]
[1]
  TERMINAL_BW: 251.2 g
  APTT: 16.5 s
  Bas: 0%
  Eos: 1%
  Fbg: 269.4 mg/dL
  Hb: 13.2 g/dL
  Ht: 40.3%
  Lym: 66.8%
  MCH: 21.5 pg
  MCHC: 32.7%
  MCV: 65.7 fL
  Mono: 9.6%
  Neu: 22.4%
  PT: 11.9 s
  Plat: 133.8 x10_4/uL
  RBC: 613.4 x10_4/ul
  Ret: 6.9%
  WBC: 105.2 x10_2/uL
  KIDNEY_L: 1 g
  KIDNEY_R: 1.1 g
  KIDNEY_TOTAL: 2.1 g
  LIVER: 11.8 g
  A/G: 2
  ALP: 1258.4 IU/L
  ALT: 32.6 IU/L
  AST: 68.8 IU/L
  BUN: 15.6 mg/dL
  CRE: 0.4 mg/dL
  Ca: 11.2 mg/dL
  Cl: 104.6 meq/L
  DBIL: 0.01 mg/dL
  GLC: 185.6 mg/dL
  IP: 7.3 mg/dL
  K: 5.4 meq/L
  LDH: 203 IU/L
  Na: 136 meq/L
  PL: 152.2 mg/dL
  RALB: 3.7 g/dL
  TBIL: 0.034 mg/dL
  TC: 79.8 mg/dL
  TG: 119.6 mg/dL
  TP: 5.6 g/dL
  gamma-GTP: 1 IU/L
[2]
  TERMINAL_BW: 275.2 g
  APTT: 16.5 s
  Bas: 0%
  Eos: 1%
  Fbg: 262.8 mg/dL
  Hb: 13.6 g/dL
  Ht: 41.6%
  Lym: 68.2%
  MCH: 21 pg
  MCHC: 32.8%
  MCV: 64.2 fL
  Mono: 7.4%
  Neu: 23.4%
  PT: 12 s
  Plat: 124.2 x10_4/uL
  RBC: 648.6 x10_4/ul
  Ret: 6.6%
  WBC: 103.6 x10_2/uL
  KIDNEY_L: 1.1 g
  KIDNEY_R: 1.1 g
  KIDNEY_TOTAL: 2.2 g
  LIVER: 12.4 g
  A/G: 1.9
  ALP: 1187.4 IU/L
  ALT: 30.2 IU/L
  AST: 68.8 IU/L
  BUN: 16.2 mg/dL
  CRE: 0.4 mg/dL
  Ca: 13.7 mg/dL
  Cl: 99.2 meq/L
  DBIL: 0.014 mg/dL
  GLC: 197.2 mg/dL
  IP: 7.4 mg/dL
  K: 5.1 meq/L
  LDH: 157.8 IU/L
  Na: 130.2 meq/L
  PL: 165 mg/dL
  RALB: 3.6 g/dL
  TBIL: 0.048 mg/dL
  TC: 86.8 mg/dL
  TG: 171 mg/dL
  TP: 5.5 g/dL
  gamma-GTP: 1 IU/L
[3]
  TERMINAL_BW: 338.4 g
  APTT: 15.5 s
  Bas: 0%
  Eos: 1%
  Fbg: 263.4 mg/dL
  Hb: 14.2 g/dL
  Ht: 43.5%
  Lym: 74.8%
  MCH: 20.7 pg
  MCHC: 32.6%
  MCV: 63.2 fL
  Mono: 7.8%
  Neu: 16.8%
  PT: 11.7 s
  Plat: 130.6 x10_4/uL
  RBC: 687 x10_4/ul
  Ret: 6%
  WBC: 122.6 x10_2/uL
  KIDNEY_L: 1.3 g
  KIDNEY_R: 1.3 g
  KIDNEY_TOTAL: 2.6 g
  LIVER: 14.3 g
  A/G: 1.7
  ALP: 1208.4 IU/L
  ALT: 31 IU/L
  AST: 67.8 IU/L
  BUN: 16.2 mg/dL
  CRE: 0.4 mg/dL
  Ca: 11.1 mg/dL
  Cl: 106.2 meq/L
  DBIL: 0.01 mg/dL
  GLC: 194.2 mg/dL
  IP: 6.9 mg/dL
  K: 5.2 meq/L
  LDH: 149 IU/L
  Na: 138.6 meq/L
  PL: 166 mg/dL
  RALB: 3.8 g/dL
  TBIL: 0.026 mg/dL
  TC: 91.4 mg/dL
  TG: 136.8 mg/dL
  TP: 6 g/dL
  gamma-GTP: 0.8 IU/L
[4]
  TERMINAL_BW: 413.7 g
  APTT: 17.8 s
  Bas: 0%
  Eos: 1.6%
  Fbg: 249.4 mg/dL
  Hb: 15.2 g/dL
  Ht: 46.3%
  Lym: 77.4%
  MCH: 19 pg
  MCHC: 32.8%
  MCV: 58.1 fL
  Mono: 6.6%
  Neu: 14.8%
  PT: 12.3 s
  Plat: 113 x10_4/uL
  RBC: 797.2 x10_4/ul
  Ret: 3.1%
  WBC: 130.4 x10_2/uL
  KIDNEY_L: 1.5 g
  KIDNEY_R: 1.5 g
  KIDNEY_TOTAL: 2.9 g
  LIVER: 15.3 g
  A/G: 1.5
  ALP: 865.8 IU/L
  ALT: 27.8 IU/L
  AST: 67.6 IU/L
  BUN: 14.6 mg/dL
  CRE: 0.4 mg/dL
  Ca: 8.9 mg/dL
  Cl: 106 meq/L
  DBIL: 0.01 mg/dL
  GLC: 184.8 mg/dL
  IP: 6.2 mg/dL
  K: 4.9 meq/L
  LDH: 154.2 IU/L
  Na: 139.2 meq/L
  PL: 126.4 mg/dL
  RALB: 3.6 g/dL
  TBIL: 0.038 mg/dL
  TC: 63.6 mg/dL
  TG: 120.6 mg/dL
  TP: 6 g/dL
  gamma-GTP: 0.6 IU/L
[5]
  TERMINAL_BW: 236.2 g
  APTT: 16.3 s
  Bas: 0%
  Eos: 1.2%
  Fbg: 261.2 mg/dL
  Hb: 13.3 g/dL
  Ht: 41%
  Lym: 72%
  MCH: 21.1 pg
  MCHC: 32.4%
  MCV: 65.2 fL
  Mono: 8.6%
  Neu: 18.2%
  PT: 12.2 s
  Plat: 133.6 x10_4/uL
  RBC: 630 x10_4/ul
  Ret: 8.4%
  WBC: 92.6 x10_2/uL
  KIDNEY_L: 1 g
  KIDNEY_R: 1 g
  KIDNEY_TOTAL: 2.1 g
  LIVER: 10.6 g
  A/G: 2
  ALP: 1631.2 IU/L
  ALT: 37 IU/L
  AST: 69.2 IU/L
  BUN: 15 mg/dL
  CRE: 0.4 mg/dL
  Ca: 11.2 mg/dL
  Cl: 104.8 meq/L
  DBIL: 0.01 mg/dL
  GLC: 199 mg/dL
  IP: 7.1 mg/dL
  K: 5.1 meq/L
  LDH: 180.4 IU/L
  Na: 136.8 meq/L
  PL: 146.4 mg/dL
  RALB: 3.7 g/dL
  TBIL: 0.034 mg/dL
  TC: 79.2 mg/dL
  TG: 95.2 mg/dL
  TP: 5.6 g/dL
  gamma-GTP: 1 IU/L
[6]
  TERMINAL_BW: 262 g
  APTT: 16.7 s
  Bas: 0%
  Eos: 1%
  Fbg: 265.2 mg/dL
  Hb: 13.9 g/dL
  Ht: 42.7%
  Lym: 70%
  MCH: 21.2 pg
  MCHC: 32.5%
  MCV: 65.2 fL
  Mono: 9.4%
  Neu: 19.8%
  PT: 12.1 s
  Plat: 106 x10_4/uL
  RBC: 655.8 x10_4/ul
  Ret: 6.9%
  WBC: 101 x10_2/uL
  KIDNEY_L: 1.2 g
  KIDNEY_R: 1.2 g
  KIDNEY_TOTAL: 2.4 g
  LIVER: 11.7 g
  A/G: 1.9
  ALP: 1102.8 IU/L
  ALT: 32.8 IU/L
  AST: 69.6 IU/L
  BUN: 17.8 mg/dL
  CRE: 0.4 mg/dL
  Ca: 13.6 mg/dL
  Cl: 99.4 meq/L
  DBIL: 0.012 mg/dL
  GLC: 198.6 mg/dL
  IP: 8.2 mg/dL
  K: 4.8 meq/L
  LDH: 155.6 IU/L
  Na: 130.6 meq/L
  PL: 132.2 mg/dL
  RALB: 3.7 g/dL
  TBIL: 0.044 mg/dL
  TC: 68.6 mg/dL
  TG: 99.4 mg/dL
  TP: 5.7 g/dL
  gamma-GTP: 1 IU/L
[7]
  TERMINAL_BW: 330.1 g
  APTT: 16.6 s
  Bas: 0%
  Eos: 1%
  Fbg: 253.8 mg/dL
  Hb: 14 g/dL
  Ht: 42.8%
  Lym: 75%
  MCH: 20.2 pg
  MCHC: 32.8%
  MCV: 61.5 fL
  Mono: 8.6%
  Neu: 15.2%
  PT: 12.1 s
  Plat: 134.8 x10_4/uL
  RBC: 696.6 x10_4/ul
  Ret: 5.6%
  WBC: 119.2 x10_2/uL
  KIDNEY_L: 1.4 g
  KIDNEY_R: 1.4 g
  KIDNEY_TOTAL: 2.7 g
  LIVER: 14 g
  A/G: 1.8
  ALP: 1109.8 IU/L
  ALT: 33.8 IU/L
  AST: 70 IU/L
  BUN: 16.6 mg/dL
  CRE: 0.4 mg/dL
  Ca: 10.8 mg/dL
  Cl: 106.2 meq/L
  DBIL: 0.01 mg/dL
  GLC: 183.8 mg/dL
  IP: 6.9 mg/dL
  K: 5.3 meq/L
  LDH: 146.8 IU/L
  Na: 138.4 meq/L
  PL: 135.6 mg/dL
  RALB: 3.6 g/dL
  TBIL: 0.028 mg/dL
  TC: 66.6 mg/dL
  TG: 111.2 mg/dL
  TP: 5.7 g/dL
  gamma-GTP: 1 IU/L
[8]
  TERMINAL_BW: 414.7 g
  APTT: 17.5 s
  Bas: 0%
  Eos: 1.2%
  Fbg: 251.8 mg/dL
  Hb: 15.1 g/dL
  Ht: 46%
  Lym: 76.2%
  MCH: 19.4 pg
  MCHC: 32.8%
  MCV: 59.4 fL
  Mono: 7.2%
  Neu: 15.8%
  PT: 12 s
  Plat: 117.6 x10_4/uL
  RBC: 774.6 x10_4/ul
  Ret: 4.2%
  WBC: 132 x10_2/uL
  KIDNEY_L: 1.5 g
  KIDNEY_R: 1.5 g
  KIDNEY_TOTAL: 3 g
  LIVER: 16.3 g
  A/G: 1.5
  ALP: 926.6 IU/L
  ALT: 27.8 IU/L
  AST: 62.6 IU/L
  BUN: 16.6 mg/dL
  CRE: 0.4 mg/dL
  Ca: 9.3 mg/dL
  Cl: 105 meq/L
  DBIL: 0.012 mg/dL
  GLC: 193 mg/dL
  IP: 6.4 mg/dL
  K: 4.9 meq/L
  LDH: 168 IU/L
  Na: 139.4 meq/L
  PL: 142 mg/dL
  RALB: 3.8 g/dL
  TBIL: 0.046 mg/dL
  TC: 71.8 mg/dL
  TG: 158.2 mg/dL
  TP: 6.3 g/dL
  gamma-GTP: 0.6 IU/L
